According to EP2345639A1, “Cyclic hydroxylamine derivatives, their preparation and use as antioxidants” (ABIOGEN PHARMA S.p.A., priority 2009, dated 2011):

What was measured:
[1] = Acid dissociation constants (pKa) by titration; format: physicochemical; conditions: pH at semi-neutralization point of titration with 0.1 N NaOH or HCl
Protocol: The following equipment was used during the implementation of all the examples: • for melting point determination a Buchi B-540 instrument was used; • the pKa is the pH at the semi-neutralization point of titration using a Mettler Toledo DL-50 instrument with a 0.1 N NaOH or HC! solution; • the ^1H-NMR spectra were recorded at 300 MHz and the ^13C-NMR spectra were recorded at 75 MHz using a Varian Unity 300 instrument; • spectrophotometric measurements were carried out using a Lambda Perkin Elmer 15 UV/Vis spectrophotometer for the DPPH assay and a Wallac Victor 1420 multilabel counter spectrophotometer.

[2] = system: C6 cells (rat glioma) and BAEC cells (bovine aortic endothelial); test: In vitro inhibition of CHP-induced oxidative stress (DCF fluorescence); format: cell-based; conditions: 500 µM CHP, 4, 20, 100 and 500 µM compound, 30 minutes; depending on the concentrations and cell line
Protocol: The method used was essentially the one reported by Rüweler M. et al. ("Inhibition of peroxide-induced radical generation by plant polyphenols in C6 astroglioma cells" (2008) Toxicol in vitro 22, 1377-81), with a few minor modifications.
The cells were seeded in phenol-red free DMEM (Sigma Aldrich) into 96-well plates with 5% FBS and 20 mM HEPES at a density of 40,000 cells/well. After 48 hours, the medium was substituted by HBSS (Hanks' Balanced Salt Solution, Sigma) containing 10 µM of dihydro-2',7'-dichlorofluorescein diacetate (H2DCF-DA, Sigma Aldrich) and incubated in darkness for 30 minutes at 37 °C, in order to load the cells with fluorescent dye. H2DCF-DA was hydrolyzed enzymatically by the intracellular esterases to form non-fluorescent H2DCF, which was then rapidly oxidized to form 2',7'-dichlorofluorescein (DCF) being highly fluorescent in the presence of reactive species (RS). The intensity of DCF fluorescence is directly proportional to the amount of RS formed.
After carrying out two washes, the cells were exposed to 500 µM of CHP and various concentrations (4, 20, 100 and 500 µM) of the compounds of the invention for 30 minutes at 37 °C. Fluorescence was then measured, after cell washing, by a microplate reader at an excitation wavelength of 485 nm and an emission wavelength of 535 nm.
Six wells per plate per concentration of test composition (compound + CHP) and per control (HBSS without CHP) were measured and 12 wells were used as reference for CHP-induced stress. In addition, each 96-well plate contained 6 wells that received the highest concentration of the tested compounds without CHP, to investigate whether the compounds of the invention alone were able to induce cellular radical formation.
When using this assay, it should be borne in mind that DCF fluorescence is a generalized indicator of oxidative stress rather than of any particular reactive species, i.e. it is not a direct assay for H2O2 or other reactive species (Halliwell B, Whiteman M. (2004) "Measuring reactive species and oxidative damage in vivo and in cell culture: how should you do it and what do the results mean?" Br. J. Pharmacol. 142 231-255). Therefore, when an increase in DCF fluorescence induced by exposure of cells to CHP was measured, as was carried out in these assays, it was not possible to deduce which reactive species was responsible. Inhibition of CHP-induced fluorescence was evaluated by means of different concentrations of the compounds of the invention and comparative compounds such as Trolox and edaravone.

female CD-1 mice = test: Acute toxicity study, intraperitoneal, single dose; conditions: in vivo
Protocol: This study was carried out with the purpose of investigating the toxicity of a single dose of the listed compounds administered to ICR (CD-1) female mice. According to the current OECD guideline no.
The mice used were all female and were treated by intraperitoneal injection administration. The animals were observed individually and regularly for the first 4 hours and within 24 hours after administration, and then twice a day for the whole observation period. As soon as the animals were stabilized, observations at the weekend were undertaken once only during the day.
The evaluated parameters included the survival, body weight development, variations in skin and fur, changes in ocular, conjunctival and buccal mucous membranes, changes in activities of the respiratory, circulatory, autonomous and central nervous systems, changes in somatomotor activity and in behaviour.
Any appearance of tremors, convulsions, salivation, diarrhea, lethargy, drowsiness and coma were attentively and regularly monitored. At the end of the observation period, a post-mortem was carried out on all the animals.

| Compound | pKa1 [1] | pKa2 [1] | Inhibition of CHP-induced fluorescence [2] | toxic effect (female CD-1 mice; Example 23) | toxic effect (female CD-1 mice; mouse) |
| --- | --- | --- | --- | --- | --- |
| CC1(C)CC(=O)C(C2CCCCN2O)C(=O)C1 (stereo not shown) [(3), 2-(1-hydroxypiperidin-2-yl)-5,5-dimethylcyclohexane-1,3-dione] | 3.47 | 6.92 |  |  |  |
| CC1(C)CC(=O)C(C2COCCN2O)C(=O)C1 (stereo not shown) [(4), 2-(4-hydroxymorpholin-3-yl)-5,5-dimethylcyclohexane-1,3-dione] | 2.28 | 6.15 | effective | no toxic effect |  |
| O=C1CC(c2ccccc2)CC(=O)C1C1COCCN1O (stereo not shown) [(5), 2-(4-hydroxymorpholin-3-yl)-5-phenylcyclohexane-1,3-dione] | 2.71 | 6.44 |  |  | no toxic effect |
| O=C1CCC(=O)C1C1COCCN1O (stereo not shown) [(7), 2-(4-hydroxymorpholin-3-yl)-cyclopentane-1,3-dione] | 2.32 | 4.98 |  |  |  |
| O=C1c2ccccc2C(=O)C1C1COCCN1O (stereo not shown) [(8), 2-(4-hydroxymorpholin-3-yl)-2H-indene-1,3-dione] | 2.17 | 5.98 | effective | no toxic effect |  |
| O=c1oc2ccccc2c(O)c1C1COCCN1O (stereo not shown) [(10), 4-hydroxy-3-(4-hydroxymorpholin-3-yl)-2H-chromen-2-one] | 2.70 | 6.14 |  | no toxic effect |  |
| CC1=NN(c2ccccc2)C(=O)C1C1COCCN1O (stereo not shown) [(11), 4-(4-hydroxymorpholin-3-yl)-3-methyl-1-phenyl-1H-pyrazol-5(4H)-one] | 3.31 | 6.92 | effective |  |  |
| CC1=NN(c2ccccc2)C(=O)C1 [edaravone, reference compound] |  |  | 10-50% |  |  |
